This is an account of results in US11390629B2, “1,5-disubstituted 1,2,3-triazoles are inhibitors of Rac/Cdc42 GTPases” (UNIVERSITY OF PUERTO RICO, priority 2016, dated 2022).

One data set deals with Rac and Cdc42. Conditions: cited from earlier work.
Data set [1] deals with T1, Rac1 (Homo sapiens, UniProt P63000).
T1 construct: host or cells: MDA-MB-435
The conditions noted are these: cited from earlier work.

The next data set relates to mammary tumor. The conditions noted are these: cited from earlier work.
The target of data set [2] is T1, Rac1. Briefly: Rac activity inhibition by EHop-016 (reported), MDA-MB-435 metastatic cells. It counts as cell-based.
The conditions of data set [3]: after oral and intraperitoneal (i.p.) administration; cited from earlier work.
The target in a further data set is Cdc42 (Homo sapiens, UniProt P60953). Conditions: cited from earlier work.
Sequence of Cdc42 (P60953 whole entry): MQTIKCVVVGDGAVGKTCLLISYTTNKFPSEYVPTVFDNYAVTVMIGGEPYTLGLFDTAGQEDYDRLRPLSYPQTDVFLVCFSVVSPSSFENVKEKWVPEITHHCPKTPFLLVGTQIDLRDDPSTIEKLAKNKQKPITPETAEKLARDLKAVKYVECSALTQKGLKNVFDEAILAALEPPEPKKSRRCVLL
For a further data set, the system named is MDA-MB-231 cells. Briefly: Cell viability assay (CellTiter 96 / MTT), MDA-MB-231. The conditions noted are these: Homo sapiens, MDA-MB-231, read-out: GI50 (μM) MDA-MB-231.
The test system of a further data set is MDA-MB-231. Briefly: Migration inhibition, MDA-MB-231 (Table 1B). Type of data set: cell-based. Conditions: Homo sapiens.
For another data set, the system named is Rac. Conditions: read-out: IC50 (effective concentrations); cited from earlier work.

SMILES strings stand for the structures. Several values for one entry are separate records, joined by “and”; a condition that tells them apart may be missing. Equal values may be shown once. Read-outs that look alike come from different tables or passages of the source.

On to `Cc1cc2cc(Nc3ccnc(Nc4ccc5[nH]c(C)cc5c4)n3)ccc2[nH]1` [Aza-1], for which the effective concentration range entry in the data set on Rac and Cdc42 is “effective in the micromolar range”.
Take `COc1ccc(C2=NN(c3ccc(S(N)(=O)=O)cc3)C(c3ccccc3)C2)cc1` (centres unmarked) [CID2950007/ML141]: in the data set on Rac and Cdc42, the effective concentration range entry is recorded as “effective in the micromolar range”.
In the case of `CCn1c2ccccc2c2cc(Nc3ccnc(NCCCN4CCOCC4)n3)ccc21` [EHop-016], the IC50 at Rac1 [1] (MDA-MB-435 metastatic cells, read-out: IC50 for Rac activity) is 1.1 µM and ~1.1 µM. Moreover, the “concentrations inhibiting Rac1 activity” value on Rac1 [1] was < 5 µM. At Rac1 [1] (higher concentrations (>10 μM)), the “inhibition of Rac activity” value is recorded as 100%. For the same molecule, the IC50 on Rac1 [1] (read-out: IC50 (Rac inhibitor)) was 1.1 µM. Further, in the data set on mammary tumor (10 mg/kg BW), the “reduction of tumor growth” value is recorded as ~40%. In the data set on mammary tumor (25 mg/kg BW), the “effect on mammary tumor growth, metastasis and angiogenesis” value is “reduces mammary tumor growth, metastasis, and angiogenesis”; the toxicity result is given as “without apparent toxicity”. Further, the “potency relative to NSC23766” value at Rac1 [2] was ~100 ×. Further, in data set [3], the average half-life is recorded as 4.5 h and the bioavailability is ~30%. Moreover, the “concentrations inhibiting Cdc42 activity” value on Cdc42 is ≥ 10 µM. The “inhibition of Cdc42 activity” value on Cdc42 (higher concentrations (>10 μM)) is 75%. The IC50 at Cdc42 (read-out: IC50 for Cdc42 inhibition) was ~8 µM.
Take `CCn1c2ccccc2c2cc(-n3nncc3-c3cccc(C)c3)ccc21` [I-2, 9-ethyl-3-(5-(m-tolyl)-1H-1,2,3-triazol-1-yl)-9H-carbazole]: the GI50 in the data set on MDA-MB-231 cells was 1.33 µM. Besides, in the data set with MDA-MB-231, the inhibition at 1 µM is ≤ 1%.
The corresponding values for `CCn1c2ccccc2c2cc(-n3nncc3-c3cccc(OC)c3)ccc21` [I-3, 9-ethyl-3-(5-(3-methoxyphenyl)-1H-1,2,3-triazol-1-yl)-9H-carbazole] are 0.248 µM and ≤ 1%.
With `CCn1c2ccccc2c2cc(-n3nncc3-c3cccnc3)ccc21` [I-4, 9-ethyl-3-(5-(pyridin-3-yl)-1H-1,2,3-triazol-1-yl)-9H-carbazole], the GI50 in the data set with MDA-MB-231 cells was > 50 µM. The molecule further had an inhibition at 10 µM with MDA-MB-231 of 65.1%.
In the case of `CCn1c2ccccc2c2cc(-n3nncc3-c3ccsc3)ccc21` [I-5, 9-ethyl-3-(5-(thiophen-3-yl)-1H-1,2,3-triazol-1-yl)-9H-carbazole], the GI50 in the data set on MDA-MB-231 cells was determined as 0.408 µM. In the data set with MDA-MB-231, this molecule had an inhibition at 1 µM of 2.4%.
In the case of `CCn1c2ccccc2c2cc(-n3nncc3-c3ccccn3)ccc21` [I-6, 9-ethyl-3-(5-(pyridin-2-yl)-1H-1,2,3-triazol-1-yl)-9H-carbazole], in the data set on MDA-MB-231 cells, the GI50 was > 50 µM. The same molecule gave an inhibition at 10 µM in the data set with MDA-MB-231 of 28%.
In the case of `CCn1c2ccccc2c2cc(-n3nncc3-c3ccc(Oc4ccccc4)cc3)ccc21` [I-7], in the data set with MDA-MB-231 cells, the GI50 was > 50 µM. This molecule displayed an inhibition at 10 µM in the data set with MDA-MB-231 of 30.8%.
For `CCn1c2ccccc2c2cc(-n3nncc3CCO)ccc21` [I-8, 2-(1-(9-ethyl-9H-carbazol-3-yl)-1H-1,2,3-triazol-5-yl)ethan-1-ol], in the data set with MDA-MB-231 cells, the GI50 is > 50 µM.
On to `CCN(CC)CCCC(C)Nc1nc(C)cc(Nc2ccc3nc(C)cc(N)c3c2)n1` (centres unmarked) [NSC23766], for which the IC50 in the data set with Rac is > 75 µM.

By bioavailability is commonly meant the share of a dose that reaches the circulation, judged against a reference dose that is usually intravenous. As a reminder, the GI50 is the concentration at which growth is held to half of that of the control. As usually defined, the inhibition is the relative decrease from the control value, in per cent. Higher therefore signals strong suppression.
